In patent publication US6737383B1, “Herbicidal oxadiazolidines” (priority 1999, dated 2004):

Columns and labels:
[1] = system: duck salad; experiment: Test B flood test duck salad; type: in vivo, Heteranthera limosa
In short: (§1)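 Flood test on plants grown to the 2-leaf stage; treated plants kept in greenhouse twelve to sixteen days, then visually rated against controls on a 0 (no effect) to 10 (complete control) scale.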

[2] = system: bamyardgrass; experiment: Test B flood test barnyardgrass; type: in vivo, Echinochloa crus-galli
In short: as §1

[3] = system: wild oat; experiment: Test B pre/postemergence wild oat; type: in vivo, Avena fatua
In short: (§2)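 Herbicidal effect was estimated by eye on a ten-point control scale after plants spent twelve to sixteen days in a greenhouse following soil or foliar treatment. Foliar sprays targeted plants at one to four leaves; all doses were formulated in a non-phytotoxic solvent with surfactant.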

[4] = system: giant foxtail; experiment: Test B pre/postemergence giant foxtail; type: in vivo, Setaria faberii
In short: as §2

[5] = system: corn; experiment: Test B pre/postemergence corn; type: in vivo, Zea mays
In short: as §2

[6] = system: rice; experiment: Test B flood test rice; type: in vivo, Oryza sativa
In short: as §1

[7] = system: morningglory; experiment: Test B pre/postemergence morningglory; type: in vivo, Ipomoea hederacea
In short: as §2

[8] = system: sugar beet; experiment: Test B pre/postemergence sugar beet; type: in vivo, Beta vulgaris
In short: as §2

[9] = system: soybean; experiment: Test B pre/postemergence soybean; type: in vivo, Glycine max
In short: as §2

[10] = system: smallflower flatsedge; experiment: Test B flood test smallflower flatsedge; type: in vivo, Cyperus difformis
In short: as §1

[11] = system: rape; experiment: Test B pre/postemergence rape; type: in vivo, Brassica napus
In short: as §2

[12] = system: cocklebur; experiment: Test B pre/postemergence cocklebur; type: in vivo, Xanthium strumarium
In short: as §2

[13] = system: purple nutsedge; experiment: Test B pre/postemergence purple nutsedge; type: in vivo, Cyperus rotundus
In short: as §2

[14] = system: crabgrass; experiment: Test B pre/postemergence crabgrass; type: in vivo, Digitaria sanguinalis
In short: as §2

[15] = system: pigweed; experiment: Test B pre/postemergence pigweed; type: in vivo, Amaranthus retroflexus
In short: as §2

[16] = system: surinam grass; experiment: Test B pre/postemergence surinam grass; type: in vivo, Brachiaria decumbens
In short: as §2

[17] = Rate 31 g/ha, Pre-emergence section (flood test species), scale 0 to 10
[18] = Rate 62 g/ha, headed Pre-emergence (flood test species), scale 0 to 10 (0 no effect, 10 complete control)
[19] = Rate 125 g/ha, Pre-emergence, flood test species, scale 0 to 10 where 0 is no effect and 10 is complete control
[20] = Rate 250 g/ha, Pre-emergence, flood-test species, scale 0 to 10, 0 is no effect, 10 is complete control
[21] = Postemergence, Rate 31 g/ha, visual rating, scale 0 to 10 (0 no effect, 10 complete control)
[22] = Preemergence, Rate 31 g/ha, visual rating, scale 0 to 10 (0 no effect, 10 complete control)
[23] = Preemergence, Rate 62 g/ha, scale of 0 to 10 where 0 is no effect and 10 is complete control
[24] = Preemergence, Rate 250 g/ha, scale of 0 to 10 where 0 is no effect and 10 is complete control
[25] = Rate 62 g/ha, Postemergence, scale 0 to 10 (0 no effect, 10 complete control)
[26] = Rate 125 g/ha, Postemergence, scale of 0 to 10 where 0 is no effect and 10 is complete control
[27] = Rate 250 g/ha, Postemergence, scale of 0 to 10 where 0 is no effect and 10 is complete control
[28] = Rate 125 g/ha, Preemergence, scale of 0 to 10 where 0 is no effect and 10 is complete control

CC(C)N(C(=O)n1oc(=O)n(CCCCF)c1=O)c1ccc(F)cc1 [Compound 289]
Ducksalad plant response rating [1, 17]: 0
Ducksalad plant response rating [1, 18]: 0
Ducksalad plant response rating [1, 19]: 0
Ducksalad plant response rating [1, 20]: 0
Barnyardgrass plant response rating [2, 17]: 0
Barnyardgrass plant response rating [2, 18]: 0
Barnyardgrass plant response rating [2, 19]: 0
Barnyardgrass plant response rating [2, 20]: 3
Wild oats plant response rating [3, 21]: 0
Wild oats plant response rating [3, 22]: 0
Wild oats plant response rating [3, 23]: 1
Wild oats plant response rating [3, 24]: 8
Wild oats plant response rating [3, 25]: 0
Wild oats plant response rating [3, 26]: 3
Plant response rating, Wild oats [3, 27]: 3
Giant foxtail plant response rating [4, 21]: 2
Giant foxtail plant response rating [4, 22]: 9
Giant foxtail plant response rating [4, 23]: 10
Giant foxtail plant response rating [4, 24]: 10
Giant foxtail plant response rating [4, 25]: 2
Giant foxtail plant response rating [4, 26]: 5
Giant foxtail plant response rating [4, 28]: 10
Plant response rating, Giant foxtail [4, 27]: 7
Corn plant response rating [5, 21]: 0
Corn plant response rating [5, 22]: 0
Corn plant response rating [5, 23]: 0
Corn plant response rating [5, 24]: 2
Corn plant response rating [5, 25]: 0
Corn plant response rating [5, 26]: 0
Corn plant response rating [5, 28]: 0
Plant response rating, Corn [5, 27]: 0
Rice plant response rating [6, 17]: 0
Rice plant response rating [6, 18]: 0
Rice plant response rating [6, 19]: 0
Rice plant response rating [6, 20]: 1
Morningglory plant response rating [7, 21]: 2
Morningglory plant response rating [7, 22]: 0
Morningglory plant response rating [7, 23]: 0
Morningglory plant response rating [7, 24]: 0
Morningglory plant response rating [7, 25]: 3
Morningglory plant response rating [7, 26]: 6
Morningglory plant response rating [7, 28]: 0
Plant response rating, Morningglory [7, 27]: 8
Sugarbeets plant response rating [8, 21]: 0
Sugarbeets plant response rating [8, 22]: 0
Sugarbeets plant response rating [8, 23]: 2
Sugarbeets plant response rating [8, 24]: 8
Sugarbeets plant response rating [8, 25]: 0
Sugarbeets plant response rating [8, 26]: 0
Sugarbeets plant response rating [8, 28]: 6
Plant response rating, Sugarbeets [8, 27]: 0
Soybean plant response rating [9, 21]: 0
Soybean plant response rating [9, 22]: 0
Soybean plant response rating [9, 23]: 0
Soybean plant response rating [9, 24]: 0
Soybean plant response rating [9, 25]: 2
Soybean plant response rating [9, 26]: 3
Soybean plant response rating [9, 28]: 0
Plant response rating, Soybean [9, 27]: 4
S. Flatsedge plant response rating [10, 17]: 0
S. Flatsedge plant response rating [10, 18]: 0
S. Flatsedge plant response rating [10, 19]: 0
S. Flatsedge plant response rating [10, 20]: 0
Rape plant response rating [11, 21]: 0
Rape plant response rating [11, 22]: 0
Rape plant response rating [11, 23]: 0
Rape plant response rating [11, 24]: 10
Rape plant response rating [11, 25]: 0
Rape plant response rating [11, 26]: 2
Rape plant response rating [11, 28]: 8
Plant response rating, Rape [11, 27]: 2
Cocklebur plant response rating [12, 21]: 0
Cocklebur plant response rating [12, 22]: 0
Cocklebur plant response rating [12, 23]: 0
Cocklebur plant response rating [12, 24]: 0
Cocklebur plant response rating [12, 25]: 0
Cocklebur plant response rating [12, 26]: 1
Cocklebur plant response rating [12, 28]: 0
Plant response rating, Cocklebur [12, 27]: 2
Nutsedge plant response rating [13, 21]: 0
Nutsedge plant response rating [13, 22]: 0
Nutsedge plant response rating [13, 23]: 0
Nutsedge plant response rating [13, 24]: 0
Nutsedge plant response rating [13, 25]: 0
Nutsedge plant response rating [13, 26]: 0
Nutsedge plant response rating [13, 28]: 0
Plant response rating, Nutsedge [13, 27]: 0
Crabgrass plant response rating [14, 21]: 0
Crabgrass plant response rating [14, 22]: 1
Crabgrass plant response rating [14, 23]: 2
Crabgrass plant response rating [14, 24]: 4
Crabgrass plant response rating [14, 25]: 3
Crabgrass plant response rating [14, 26]: 5
Crabgrass plant response rating [14, 28]: 3
Plant response rating, Crabgrass [14, 27]: 9
Redroot pigweed plant response rating [15, 21]: 0
Redroot pigweed plant response rating [15, 22]: 5
Redroot pigweed plant response rating [15, 23]: 5
Redroot pigweed plant response rating [15, 24]: 8
Redroot pigweed plant response rating [15, 25]: 0
Redroot pigweed plant response rating [15, 26]: 5
Redroot pigweed plant response rating [15, 28]: 6
Plant response rating, Redroot pigweed [15, 27]: 7
B. signalgrass plant response rating [16, 21]: 0
B. signalgrass plant response rating [16, 22]: 2
B. signalgrass plant response rating [16, 23]: 7
B. signalgrass plant response rating [16, 24]: 8
B. signalgrass plant response rating [16, 25]: 0
B. signalgrass plant response rating [16, 26]: 3
B. signalgrass plant response rating [16, 28]: 7
Plant response rating, B. signalgrass [16, 27]: 3
